Converted amounts (≈) assume the structure as drawn. Where two headings read alike, the source gives them in different places. One block for each molecule: values may come before it.
Legend:
Assay type in all cases: physicochemical
[1] = Solubility of Forms A and G after 40 min stirring; conditions: for solubility at 40 min: organic solvent or mixture, thermodynamic from solid
Description: (§1) For purity estimation and determination of the solubility in solution a generic in-house HPLC method was used. HPLC was performed using a Phenomenex Luna 3 μm C18 (50×4.6 mm) column and detected with a DAD detector, recording at 214 nm.

[2] = Form stability analysis (solubility and concurrent slurry experiments)
Description: As form conversions tend to happen faster at elevated temperature at 60° C., slurries were performed for the starting material used for the screening (A/G mixture) during 18 h at 60° C.
Forms J and C were identified as potential non-solvates and their stability was investigated. Form J could be eliminated as stable form because, in part, the DSC (FIG. 36) indicated an exothermic form conversion around 140° C. This leads to a form melting at 210° C., which likely represents Form G and therefore represents a monotropic relation.
Form C was obtained by drying a Form C/J mixture. The XRPD pattern appeared to contain traces of reflexes of Form J. Slurries of Form C seeded with Form A (15% w/w) in ethanol and acetone were performed during 18 h. The resulting solid was pure Form A. This also confirmed the exothermic event observed in DSC (FIG. 16) which indicated a monotropic relation to the form formed in DSC around 130° C. (melting point 210° C., which, as described herein, is likely Form G).

[3] = Solubility of Form A at 20° C. and 40° C.; conditions: organic solvent or mixture, thermodynamic from solid
Description: as §1
To develop a Form A crystallization, a series of solubility data points was collected (Table 5). An amount of up to 15 mg was suspended in 150 μL and the mixture stirred for 2 days. Solubility was then determined by HPLC or by calculation if a solution was observed.

[4] = Slurry screening, solubility determined by HPLC; conditions: thermodynamic from solid; for solubility at 5 days: slurry stirred 5 days; for Solubility: solution
Description: as §1
The slurry experiments were performed by taking approximately 40 mg starting material and slurrying in each of the solvent mixtures as detailed Table 3 using a magnetic stir bar. Solvents were chosen as described to have a high diversity (e.g., in polarity, protic/aprotic). The solvents were not necessarily selected for pharmaceutical suitability in regards to ICH guidelines. Only as much solvent or mixtures as needed to slurry/suspend the material was used—starting from 200 μL to a maximum of 2 mL. The slurries were stirred for 5 days. The suspensions were filtered and the filter cake slightly dried to not destroy potential solvates and subjected to XRPD. In case suspensions started to run through the filter the suspensions were dried using a nitrogen stream. As the solubility was tested in the solvents, the evaporated solvent provides a small amount of solid compared to the material suspended (i.e., the slurry form still should be dominant).

SMILES: CCCN(CCC)C(=O)C1=Cc2ccc(-c3ccc(C(=O)N4CCCC4)cc3)cc2N=C(N)C1 [Compound A, (1E, 4E)-2-amino-N,N-dipropyl-8-(4-(pyrrolidine-1-carbonyl)phenyl)-3H-benzo[b]azepine-4-carboxamide]
- solubility at 40 min ([1]; EtOH, 0 °C): 4700 µg/mL (≈ 10.2 mM)
- solubility at 40 min ([1]; EtOH, 22 °C): 11700 µg/mL (≈ 25.5 mM)
- solubility at 40 min ([1]; EtOH, 60 °C): 32100 µg/mL (≈ 70 mM)
- solubility at 40 min ([1]; MEK, 0 °C): 1800 µg/mL (≈ 3.92 mM)
- solubility at 40 min ([1]; MEK, 22 °C): 2400 µg/mL (≈ 5.23 mM)
- solubility at 40 min ([1]; MEK, 60 °C): 3700 µg/mL (≈ 8.07 mM)

SMILES: CCCN(CCC)C(=O)C1=Cc2ccc(-c3ccc(C(=O)N4CCCC4)cc3)cc2N=C(N)C1 [Form A, (1E, 4E)-2-amino-N,N-dipropyl-8-(4-(pyrrolidine-1-carbonyl)phenyl)-3H-benzo[b]azepine-4-carboxamide]
- stability relative to other crystalline forms [2]: more stable than Form G at 20 °C
- thermodynamic stability of the crystalline form ([2]; from 0° C. to 60° C.): thermodynamically most stable form
- solubility at 2 days ([3]; 2-PrOH, 20° C., stirred 2 days): 4.5 mg/mL (≈ 9.81 mM)
- solubility at 2 days ([3]; 2-PrOH, 40° C., stirred 2 days): 9.59 mg/mL (≈ 20.9 mM)
- solubility at 2 days ([3]; DMSO, 20° C., stirred 2 days): 21.6 mg/mL (≈ 47.1 mM)
- solubility at 2 days ([3]; DMSO, 40° C., stirred 2 days): 50.9 mg/mL (≈ 111 mM)
- solubility at 2 days ([3]; DMSO/EtOAc 1:1 v/v, 20° C., stirred 2 days): 15 mg/mL (≈ 32.7 mM)
- solubility at 2 days ([3]; DMSO/EtOAc 1:1 v/v, 40° C., stirred 2 days): 36.9 mg/mL (≈ 80.5 mM)
- solubility at 2 days ([3]; DMSO/TBME 1:1 v/v, 20° C., stirred 2 days): 17.2 mg/mL (≈ 37.5 mM)
- solubility at 2 days ([3]; DMSO/TBME 1:1 v/v, 40° C., stirred 2 days): 44.6 mg/mL (≈ 97.3 mM)
- solubility at 2 days ([3]; EtOH, 20° C., stirred 2 days): 8.5 mg/mL (≈ 18.5 mM)
- solubility at 2 days ([3]; EtOH, 40° C., stirred 2 days): 24 mg/mL (≈ 52.3 mM)
- solubility at 2 days ([3]; THF, 20° C., stirred 2 days): 3.7 mg/mL (≈ 8.07 mM)
- solubility at 2 days ([3]; THF, 40° C., stirred 2 days): 7.7 mg/mL (≈ 16.8 mM)
- solubility at 2 days ([3]; THF/EtOH 8:2 v/v, 20° C., stirred 2 days): 13.4 mg/mL (≈ 29.2 mM)
- solubility at 2 days ([3]; THF/EtOH 8:2 v/v, 40° C., stirred 2 days): 27.8 mg/mL (≈ 60.6 mM)
- solubility at 2 days ([3]; THF/H2O 8:2 v/v, 20° C., stirred 2 days): 38.6 mg/mL (≈ 84.2 mM)
- solubility at 2 days ([3]; THF/H2O 8:2 v/v, 40° C., clear solution with 10 vol of solvent mix): > 100 mg/mL
- solubility at 2 days ([3]; Toluene/2-PrOH 7:3 v/v, 20° C., stirred 2 days): 23.1 mg/mL (≈ 50.4 mM)
- solubility at 2 days ([3]; Toluene/2-PrOH 7:3 v/v, 40° C., stirred 2 days): 45.9 mg/mL (≈ 100 mM)
- solubility at 2 days ([3]; Toluene/MeOH 7:3 v/v, 20° C., clear solution with 10 vol of solvent mix): > 100 mg/mL
- solubility at 2 days ([3]; Toluene/MeOH 7:3 v/v, 40° C., clear solution with 10 vol of solvent mix): > 100 mg/mL

SMILES: CCCN(CCC)C(=O)C1=Cc2ccc(-c3ccc(C(=O)N4CCCC4)cc3)cc2N=C(N)C1 [Form C, (1E, 4E)-2-amino-N,N-dipropyl-8-(4-(pyrrolidine-1-carbonyl)phenyl)-3H-benzo[b]azepine-4-carboxamide]
- stability relative to other crystalline forms [2]: less stable than Forms A and G
- form of resulting solid after slurry ([2]; seeded with Form A (15% w/w), slurries in ethanol and acetone during 18 h): pure Form A

SMILES: CCCN(CCC)C(=O)C1=Cc2ccc(-c3ccc(C(=O)N4CCCC4)cc3)cc2N=C(N)C1 [Form G, (1E, 4E)-2-amino-N,N-dipropyl-8-(4-(pyrrolidine-1-carbonyl)phenyl)-3H-benzo[b]azepine-4-carboxamide]
- Solubility ([1]; EtOH, 0 ° C.): 7.6 mg/mL (≈ 16.6 mM)
- Solubility ([1]; EtOH, 22 ° C.): 15.8 mg/mL (≈ 34.5 mM)
- Solubility ([1]; EtOH, 60 ° C.): 36.9 mg/mL (≈ 80.5 mM)
- Solubility ([1]; MEK, 0 ° C.): 2.6 mg/mL (≈ 5.67 mM)
- Solubility ([1]; MEK, 22 ° C.): 3.1 mg/mL (≈ 6.76 mM)
- Solubility ([1]; MEK, 60 ° C.): 4.6 mg/mL (≈ 10 mM)
- stability relative to other crystalline forms [2]: less stable at 25 °C in comparison to Form A

SMILES: CCCN(CCC)C(=O)C1=Cc2ccc(-c3ccc(C(=O)N4CCCC4)cc3)cc2N=C(N)C1 [Form H, (1E, 4E)-2-amino-N,N-dipropyl-8-(4-(pyrrolidine-1-carbonyl)phenyl)-3H-benzo[b]azepine-4-carboxamide]
- stability relative to other crystalline forms [2]: Form A is more stable than Form H

Now from value to molecule:

- stability relative to other crystalline forms [2]: less stable than Form A
- stability relative to other crystalline forms ([2]; listed as J): less stable than Forms A and G
SMILES: CCCN(CCC)C(=O)C1=Cc2ccc(-c3ccc(C(=O)N4CCCC4)cc3)cc2N=C(N)C1 [Form J, (1E, 4E)-2-amino-N,N-dipropyl-8-(4-(pyrrolidine-1-carbonyl)phenyl)-3H-benzo[b]azepine-4-carboxamide]

- form of isolated solid after slurry ([2]; slurries during 18 h at 60° C.): pure Form A
- solubility at 5 days ([4]; aqueous with cosolvent or surfactant or cyclodextrin, solvent EtOH/water 1/1): 3220 µg/mL (≈ 7.02 mM)
- solubility at 5 days ([4]; aqueous with cosolvent or surfactant or cyclodextrin, solvent EtOH/water 3/1): 21000 µg/mL (≈ 45.7 mM)
- solubility at 5 days ([4]; aqueous with cosolvent or surfactant or cyclodextrin, solvent IPA/water 3/1): 16900 µg/mL (≈ 36.8 mM)
- solubility at 5 days ([4]; aqueous with cosolvent or surfactant or cyclodextrin, solvent ac/water 1/2): 480 µg/mL (≈ 1.05 mM)
- Solubility ([4]; aqueous with cosolvent or surfactant or cyclodextrin, solvent HOAc/water 1/1): > 100 mg/mL
- solubility at 5 days ([4]; organic solvent or mixture, solvent 1-propanol): 12000 µg/mL (≈ 26.2 mM)
- solubility at 5 days ([4]; organic solvent or mixture, solvent 2-Me-THF): 1030 µg/mL (≈ 2.25 mM)
- solubility at 5 days ([4]; organic solvent or mixture, solvent 2-propanol): 6860 µg/mL (≈ 15 mM)
- solubility at 5 days ([4]; organic solvent or mixture, solvent ACN): 810 µg/mL (≈ 1.77 mM)
- solubility at 5 days ([4]; organic solvent or mixture, solvent DCM): > 70000 µg/mL
- solubility at 5 days ([4]; organic solvent or mixture, solvent DMSO): 28800 µg/mL (≈ 62.8 mM)
- solubility at 5 days ([4]; organic solvent or mixture, solvent EtOAc wet): 2690 µg/mL (≈ 5.87 mM)
- solubility at 5 days ([4]; organic solvent or mixture, solvent MCH): 80 µg/mL (≈ 0.174 mM)
- solubility at 5 days ([4]; organic solvent or mixture, solvent MEK): 3670 µg/mL (≈ 8 mM)
- solubility at 5 days ([4]; organic solvent or mixture, solvent MIBK): 790 µg/mL (≈ 1.72 mM)
- solubility at 5 days ([4]; organic solvent or mixture, solvent NMP): 52300 µg/mL (≈ 114 mM)
- solubility at 5 days ([4]; organic solvent or mixture, solvent TBME): 160 µg/mL (≈ 0.349 mM)
- solubility at 5 days ([4]; organic solvent or mixture, solvent THF): 5710 µg/mL (≈ 12.5 mM)
- solubility at 5 days ([4]; organic solvent or mixture, solvent acetone): 1370 µg/mL (≈ 2.99 mM)
- solubility at 5 days ([4]; organic solvent or mixture, solvent chlorobenzene): 1810 µg/mL (≈ 3.95 mM)
- solubility at 5 days ([4]; organic solvent or mixture, solvent diethylether): 20 µg/mL (≈ 0.0436 mM)
- solubility at 5 days ([4]; organic solvent or mixture, solvent dioxane): 5100 µg/mL (≈ 11.1 mM)
- solubility at 5 days ([4]; organic solvent or mixture, solvent ethanol): 11600 µg/mL (≈ 25.3 mM)
- solubility at 5 days ([4]; organic solvent or mixture, solvent ethyl acetate): 570 µg/mL (≈ 1.24 mM)
- solubility at 5 days ([4]; organic solvent or mixture, solvent heptane): 20 µg/mL (≈ 0.0436 mM)
- solubility at 5 days ([4]; organic solvent or mixture, solvent iPrOAc): 600 µg/mL (≈ 1.31 mM)
- solubility at 5 days ([4]; organic solvent or mixture, solvent methanol): 29800 µg/mL (≈ 65.1 mM)
- solubility at 5 days ([4]; organic solvent or mixture, solvent methyl acetate): 940 µg/mL (≈ 2.05 mM)
- solubility at 5 days ([4]; organic solvent or mixture, solvent toluene): 450 µg/mL (≈ 0.981 mM)
- Solubility ([4]; organic solvent or mixture, solvent trifluoroethanol): > 130 mg/mL
- solubility at 5 days ([4]; solvent water): 40 µg/mL (≈ 0.0872 mM)
SMILES: CCCN(CCC)C(=O)C1=Cc2ccc(-c3ccc(C(=O)N4CCCC4)cc3)cc2N=C(N)C1 [starting material, (1E, 4E)-2-amino-N,N-dipropyl-8-(4-(pyrrolidine-1-carbonyl)phenyl)-3H-benzo[b]azepine-4-carboxamide]

From patent US10604510B2, “Solid forms comprising (1E, 4E)-2-amino-N,N-dipropyl-8-(4-(pyrrolidine-1-carbonyl)phenyl)-3H-benzo[B]azepine-4-carboxami compositions thereof, and uses thereof” (Celgene Corporation, priority 2014, dated 2020)
